Read-outs that look alike come from different tables or passages of the source.
Experiments:
[1] = Single dose study (001 Study) Part A: plasma PK of compound A; assay type: in vivo; details: human, healthy subjects (Part A); for AUC from 0 to 24 h / AUC(0-inf) / AUC(0-t) / Cmax / half-life / Tmax: plasma, po; for AUC from 0 to 24 h: read-out: AUC(0-24) Mean(SD); for AUC(0-inf): read-out: AUC(0-inf) Mean(SD); for AUC(0-t): read-out: AUC(0-t) Mean(SD); for Cmax: read-out: Cmax Mean(SD); for half-life: read-out: t1/2 Median (converted); for Tmax: read-out: tmax Median; for concentration at 9 h: read-out: C9 Mean(SD)
From the text: This was a randomized, double-blind, placebo- and active-controlled, sequential, single-dose study. The study consisted of two parts, Part A (healthy subjects) and Part B (otherwise healthy subjects with primary insomnia).
(§1) For Part A, 64 healthy subjects were enrolled into cohorts sequentially in a gradual dose escalation manner, to receive either compound A or placebo, and stratified by gender. Each cohort comprised six compound A- and two placebo-treated subjects. All study drugs were administered as single doses using one or more compound A-capsules or compound A-matched placebo capsules due to the test dose. After screening, subjects underwent baseline procedures and randomization on Day-2. Subjects were dosed on Day 1 in the morning after an overnight fast, 1 hour after lights-on. PK blood samples were collected at prespecified timepoints, and PD assessments were performed. Subjects were administered assessments on Day 1 predose and every 2 hours from 2 to 12 hours postdose, and each morning on Days 2 to 6.
For subjects in Part A, Blood samples for determination of plasma concentrations of compound A were collected on Day 1 predose and at 0.25 (15 minutes), 0.5 (30 minutes), 1, 2, 3, 4, 5, 6, 9, 12, 24, 48, 72, 96, 120, 168, and 240 hours after oral administration of compound A, but collected up to 72 hours in the first three cohorts (1, 2.5 and 5 mg compound A groups). PK samples were collected preferentially via an indwelling venous catheter for the first 12 hours and by direct venipuncture thereafter.
Plasma concentrations of compound A were measured using a validated liquid chromatography-mass spectrometry/mass spectrometry (LC-MS/MS) assay.

healthy subjects = assay: 001 Study Part A: sleepiness measures KSS, DSST, PVT; assay type: in vivo, human
Method: as §1
These assessments included the Karolinska Sleepiness Scale (KSS), Digit Symbol Substitution Test (DSST), and Psychomotor Vigilance Test (PVT) in order to assess daytime sleepiness, level of alertness, and ability to concentrate. Waketime Questionnaires were administered after PD assessments each morning on Days 1 to Day 6. Time and duration of naps was recorded on Days 1 and 2. Safety was monitored throughout the study. […]

subjects with insomnia = assay: 201 Study: population PK and PK/PD analysis; assay type: in vivo, human
Method: During the Treatment period, blood samples for plasma concentrations of compound A were obtained within 30 minutes predose each night (except on Day 1) in the clinic and within 1 hour of morning waketime following each night spent in the clinic. Plasma concentrations of compound A were measured using a validated liquid chromatography-tandem mass spectrometry (LC-MS/MS) assay.
The PK/PD Analysis Set was used to evaluate relationships between compound A concentrations and selected PD parameters. The relationships between exposure to compound A and selected PD endpoints (eg. KSS, DSST, RTI) were explored graphically and could be followed by population PK/PD modeling. The relationship between plasma concentrations of compound A at predose (trough), and within 1 hour after morning waketime, and selected PD parameters, was analyzed using Nonmem version 7.2 or later.
Measures of the PD effects of compound A included KSS, RTI, DSST, the WFB (RTI, Rapid Visual Processing [RVP], and Spatial Span [SSP]), POMS, melatonin levels, and the DLMO. Due to high variability and non-normal distribution in change from baseline of LPS, it was not possible to reliably model the concentration-response relationship between compound A PK parameters and LPS. Nonetheless, higher plasma concentrations of compound A were associated with larger decreases in LPS, up to approximately 10 ng/mL. This finding was consistent with the efficacy results, where LPS was decreased at doses of 2.5 mg and higher. […] When modeled, WASO data were best described by log-linear relationships with the maximum observed concentration (Cmax). […] However, subjects whose compound A plasma concentrations were greater than 20 ng/mL at 1 hour after waking had slightly greater increases on the KSS and a higher incidence of AEs of somnolence. This concentration is predicted to be achieved by most subjects receiving doses greater than 10 mg.

`Cc1ncc(OC[C@@]2(c3cccc(F)c3)C[C@H]2C(=O)Nc2ccc(F)cn2)c(C)n1` [Compound A, (1R,2 S)-2-(((2,4-dimethylpyrimidin-5-yl)oxy)methyl)-2-(3-fluorophenyl)-N-(5-fluoropyridin-2-yl) cyclopropanecarboxamide] showed an AUC from 0 to 24 h ([1]; 1 mg, single oral 1 mg) of about 17.2 ng·h/mL, an AUC(0-inf) ([1]; 1 mg, single oral 1 mg) of about 19.8 ng·h/mL and an AUC(0-t) ([1]; 1 mg, single oral 1 mg) of about 19.1 ng·h/mL. It also gave a Cmax ([1]; 1 mg, single oral 1 mg) of about 5.3 ng/mL, a half-life ([1]; 1 mg, single oral 1 mg) of about 12.7 h and a Tmax ([1]; 1 mg, single oral 1 mg) of about 1 h. It also gave an AUC from 0 to 24 h ([1]; 2.5 mg, single oral 2.5 mg) of 56.8 ng·h/mL, an AUC(0-inf) ([1]; 2.5 mg, single oral 2.5 mg) of 79.7 ng·h/mL and an AUC(0-t) ([1]; 2.5 mg, single oral 2.5 mg) of 80.2 ng·h/mL. The Cmax ([1]; 2.5 mg, single oral 2.5 mg) was 15.9 ng/mL, the half-life ([1]; 2.5 mg, single oral 2.5 mg) was 30.1 h and the Tmax ([1]; 2.5 mg, single oral 2.5 mg) was 1.01 h. The AUC from 0 to 24 h ([1]; 5 mg, single oral 5 mg) was 94.6 ng·h/mL, the AUC(0-inf) ([1]; 5 mg, single oral 5 mg) was 149 ng·h/mL and the AUC(0-t) ([1]; 5 mg, single oral 5 mg) was 128 ng·h/mL. The Cmax ([1]; 5 mg, single oral 5 mg) was 22.7 ng/mL, the half-life ([1]; 5 mg, single oral 5 mg) was 31.3 h and the Tmax ([1]; 5 mg, single oral 5 mg) was 1.55 h. It also gave an AUC from 0 to 24 h ([1]; 10 mg, single oral 10 mg) of 159 ng·h/mL, an AUC(0-inf) ([1]; 10 mg, single oral 10 mg) of 311 ng·h/mL and an AUC(0-t) ([1]; 10 mg, single oral 10 mg) of 284 ng·h/mL. It also gave a Cmax ([1]; 10 mg, single oral 10 mg) of 36 ng/mL, a half-life ([1]; 10 mg, single oral 10 mg) of 56.1 h and a Tmax ([1]; 10 mg, single oral 10 mg) of 1 h. It also gave an AUC from 0 to 24 h ([1]; 25 mg, single oral 25 mg) of 654 ng·h/mL, an AUC(0-inf) ([1]; 25 mg, single oral 25 mg) of 1540 ng·h/mL and an AUC(0-t) ([1]; 25 mg, single oral 25 mg) of 1450 ng·h/mL. It also gave a Cmax ([1]; 25 mg, single oral 25 mg) of 108 ng/mL, a half-life ([1]; 25 mg, single oral 25 mg) of 65.5 h and a Tmax ([1]; 25 mg, single oral 25 mg) of 2.01 h. It also gave an AUC from 0 to 24 h ([1]; 50 mg, single oral 50 mg) of 1110 ng·h/mL, an AUC(0-inf) ([1]; 50 mg, single oral 50 mg) of 2150 ng·h/mL and an AUC(0-t) ([1]; 50 mg, single oral 50 mg) of 2080 ng·h/mL. For the same molecule, the Cmax ([1]; 50 mg, single oral 50 mg) was 168 ng/mL, the half-life ([1]; 50 mg, single oral 50 mg) was 51.9 h and the Tmax ([1]; 50 mg, single oral 50 mg) was 2.53 h. For the same molecule, the AUC from 0 to 24 h ([1]; 100 mg, single oral 100 mg) was 1930 ng·h/mL, the AUC(0-inf) ([1]; 100 mg, single oral 100 mg) was 4740 ng·h/mL and the AUC(0-t) ([1]; 100 mg, single oral 100 mg) was 4490 ng·h/mL. For the same molecule, the Cmax ([1]; 100 mg, single oral 100 mg) was 264 ng/mL, the half-life ([1]; 100 mg, single oral 100 mg) was 59.8 h and the Tmax ([1]; 100 mg, single oral 100 mg) was 3 h. The AUC from 0 to 24 h ([1]; 200 mg, single oral 200 mg) was 4080 ng·h/mL, the AUC(0-inf) ([1]; 200 mg, single oral 200 mg) was 10500 ng·h/mL and the AUC(0-t) ([1]; 200 mg, single oral 200 mg) was 9840 ng·h/mL. The Cmax ([1]; 200 mg, single oral 200 mg) was 431 ng/mL, the half-life ([1]; 200 mg, single oral 200 mg) was 65.2 h and the Tmax ([1]; 200 mg, single oral 200 mg) was 3 h. For the same molecule, the concentration at 9 h ([1]; plasma at 9 h after single oral 1 mg) was 0.384 ng/mL, the concentration at 9 h ([1]; plasma at 9 h after single oral 2.5 mg) was 1.54 ng/mL and the concentration at 9 h ([1]; plasma at 9 h after single oral 5 mg) was 2.68 ng/mL. It also gave a concentration at 9 h ([1]; plasma at 9 h after single oral 10 mg) of 4.6 ng/mL, a concentration at 9 h ([1]; plasma at 9 h after single oral 25 mg) of 21.9 ng/mL and a concentration at 9 h ([1]; plasma at 9 h after single oral 50 mg) of 39.3 ng/mL. The concentration at 9 h ([1]; plasma at 9 h after single oral 100 mg) was 86 ng/mL, the concentration at 9 h ([1]; plasma at 9 h after single oral 200 mg) was 199 ng/mL and the “time of maximal pharmacodynamic response on KSS, DSST, PVT” value (healthy subjects; postdose, coinciding with Cmax) was about 2 h. For the same molecule, the “measures of sleepiness (KSS, DSST, PVT)” value (healthy subjects; single morning doses 1-200 mg) was “general dose-response relationship”, the “next-day residual sleepiness (KSS, DSST, RTI) vs time-matched plasma concentrations” value (subjects with insomnia; PK/PD analyses) was “did not show any apparent relationship” and the “exposure-response relationship for WASO” value (subjects with insomnia; PK/PD model) was “log-linear relationship with Cmax”. The “plasma concentration up to which higher concentrations were associated with larger decreases in LPS” value (subjects with insomnia; asymptote above this concentration) was “approximately 10 ng/mL”, the “plasma concentration associated with slightly greater increases on the KSS and higher incidence of AEs of somnolence” value (subjects with insomnia; at 1 hour after waking) was “greater than 20 ng/mL” and the Apparent clearance (subjects with insomnia; population PK) was “independent of dose and time”. The PK model (subjects with insomnia; population PK) was 2-compartment model with elimination from the central compartment and the “doses predicted to achieve plasma concentration greater than 20 ng/mL at 1 hour after waking in most subjects” value (subjects with insomnia; predicted) was “greater than 10 mg”.

From patent US11026944B2, “Compositions and methods for treating insomnia” (Eisai R&D Management Co., Ltd., priority 2014, dated 2021)
